We go through two molecules from paper PMC10361251, “Absorption, tissue distribution, and excretion of glycycoumarin, a major bioactive coumarin from Chinese licorice (Glycyrrhiza uralensis Fisch)” (Frontiers in Pharmacology, 2023).

Usually CL/F stands for the apparent clearance, not corrected for the fraction that reaches the circulation.

The structures appear in SMILES notation. Read-outs that look alike come from different tables or passages of the source.

Data set [1] can be described thus: Plasma pharmacokinetics of free and total GCM after i.v. or oral administration (LC-MS/MS, with or without β-glucuronidase hydrolysis). The format is in vivo, Sprague-Dawley rats. From the text: Male Sprague-Dawley rats (200 ± 20 g) were obtained from SJA Laboratory Animal Co. Ltd. (Hunan, China). All animals were kept under standard conditions of light, humidity, and temperature, and were allowed free access to a standard diet and water. All animal experiments were approved by the Animal Ethics Committee of Bijie City First People’s Hospital (BY[2019]-02-198). On the day before GCM administration, rats were subjected to a minor surgical procedure. Briefly, a polyurethane catheter (0.59 mm ID, 0.94 mm OD; Skillsmodel Limited, Beijing, China) was cannulated into the right jugular vein while under anesthesia induced using an intraperitoneal dose of chloral hydrate at 350 mg/kg. After surgery, the rats were individually placed in metabolism cages to allow recovery for at least 24 h. The rats were fasted overnight with free access to water before GCM administration.
All GCM dosing drugs were freshly prepared at a concentration of 10 mg/mL prior to the experiments. Briefly, GCM was dissolved in normal saline containing 5% (v/v) Solutol HS 15. The animals were randomly divided into three groups. The i. v. administration group was treated intravenously with […] by quick injection through the cannulated catheter, and approximately 0.2 mL saline with 20 units of heparin was injected to flush the catheter and prevent blood coagulation. The oral administration group was treated with […] in a single gastric gavage dose, and the intraperitoneal injection group received 20 mg/kg GCM through intraperitoneal injection.
Approximately 0.3 mL blood samples were collected via the cannula and placed into heparinized micro centrifuge (Eppendorf) tubes at multiple time-points (0.08, 0.25, 0.50, 1, 2, 3, 4, 5, 6, 7, 8, 10, 12, and 24 h) after GCM administration. The samples were centrifuged at 3000 × g for 5 min at 4°C for plasma separation; a 0.1 mL aliquot of each separated plasma sample was harvested and stored at −40°C until assessed.
Free (parent drug) and/or total (including parent and glucuronidated metabolites) GCM concentrations in rat plasma, tissues, urine, and bile were quantitatively assayed using LC-MS/MS before and after hydrolytic treatment with β-glucuronidase.
Aliquots (100 μL) of plasma samples were divided into two equal fractions for determining the free and total GCM concentrations, as previously described ([Chang et al., 2012]). Briefly, two aliquots of 50 μL plasma were incubated at 37°C with or without β-glucuronidase at a concentration of 1,200 units for total and free GCM, respectively. After 40 min of incubation, 10 μL of IS (1,000 ng/mL) was added to the mixtures followed by extraction with ethyl acetate. After centrifugation, the clear ethyl acetate layer was transferred and concentrated using a freeze-dry concentration method at 4°C. Subsequently, the remaining material was reconstituted in 200 μL of 90% (v/v) methanol. A 10 μL aliquot of the supernatant was injected into the LC-MS/MS system for analysis.
An LC-MS/MS system comprising an Agilent 1260 HPLC system (Palo Alto, CA, United States) and an Applied Biosystems 4500 Q-Trap mass spectrometer equipped with an electrospray ionization source (Foster City, CA, United States) was used. Chromatographic separation was performed on a C18 column (100 × 4.6 mm, 3 μm, Thermo Fisher Scientific, Waltham, MA, United States) maintained at 30°C. The mobile phases comprised 0.1% (v/v) formic acid in water (A) and acetonitrile (B) at a flow rate of 0.4 mL/min. […] The total run time was 4 min. For mass spectrometry detection, the positive ion mode was used and the ion spray voltage was set at 5,500 V. The operating conditions were as follows: ion source temperature, 450°C; curtain gas, 20 psi; collision gas, medium. Ion source gases 1 and 2 were both at 60 psi. The collision energies were 37 and 42 V, and the declustering potentials for GCM and IS were 110 and 136 V, respectively. […]

For data set [2], the system named is CYP2D6. Set-up: method as in Qiao et al., 2014a. Particulars: ref Qiao et al., 2014a; cited from earlier work.
Data set [3] deals with CYP2C8. Set-up: method as in Li et al., 2017; Kuang et al., 2021. Particulars: human liver microsomes; ref Li et al., 2017; Kuang et al., 2021; cited from earlier work.
Data set [4] deals with CYP2C9. Particulars: human liver microsomes, cited from earlier work. In general terms: Microsomes from liver hold many membrane-bound enzymes, among them those of drug oxidation.
Data set [5] relates to CYP1A2. Set-up: method as in Li et al., 2017; Kuang et al., 2021. Conditions: human liver microsomes; ref Li et al., 2017; Kuang et al., 2021; cited from earlier work.
Data set [6] in a line: Urinary excretion of free and total GCM after i.v. administration. The format is in vivo, rats. Particulars: Sprague-Dawley, rat, urine, iv, 10 mg/kg, free GCM, i.v. 10 mg/kg. As for the experimental part:
Six rats were individually placed in metabolic cages and administered 10 mg/kg GCM by i. v. injection. Urine samples were collected over 24 h after administration in a urine reservoir containing 2 mL 0.1% HCl to avoid GCM degradation. Each urine reservoir was rinsed with 5 mL normal saline after collection. Every urine sample was diluted to 20 mL with normal saline and then stored at −40°C until assayed.
(§1) Two aliquots of 50 μL prepared bile or urine samples were spiked with or without β-glucuronidase to determine the total or free GCM concentrations, as described above. The mixtures were incubated at 37°C for 40 min, and the mixtures were then spiked with 120 μL of ice-cold methanol containing IS to stop incubation. A 10 μL supernatant of each sample was used for the analysis.
(§2) An LC-MS/MS system comprising an Agilent 1260 HPLC system (Palo Alto, CA, United States) and an Applied Biosystems 4500 Q-Trap mass spectrometer equipped with an electrospray ionization source (Foster City, CA, United States) was used. Chromatographic separation was performed on a C18 column (100 × 4.6 mm, 3 μm, Thermo Fisher Scientific, Waltham, MA, United States) maintained at 30°C. The mobile phases comprised 0.1% (v/v) formic acid in water (A) and acetonitrile (B) at a flow rate of 0.4 mL/min. […] The total run time was 4 min. For mass spectrometry detection, the positive ion mode was used and the ion spray voltage was set at 5,500 V. The operating conditions were as follows: ion source temperature, 450°C; curtain gas, 20 psi; collision gas, medium. Ion source gases 1 and 2 were both at 60 psi. The collision energies were 37 and 42 V, and the declustering potentials for GCM and IS were 110 and 136 V, respectively. Quantification was performed by multiple reaction monitoring (MRM) of molecular ions and product ions at m/z 369.3 and 284.7 for GCM and 337.0 and 280.9 for IS (Supplementary Figure S1). Analyst® software (Version 1.6.3) was used for data acquisition and peak integration.

Data set [7] is described as follows: Biliary excretion of free and total GCM after i.v. administration. Format: in vivo, rats. Conditions: free GCM, i.v. 10 mg/kg; for dose excreted: Sprague-Dawley, rat, bile, iv, 10 mg/kg, read-out: Bile recovery. As for the experimental part:
Rats (n = 6) underwent bile fistula cannulation under anesthesia prior to bile sample collection. Bile samples from rats following i. v. GCM administration (10 mg/kg) were collected via cannula every 2 h over an 8 h collection period. Samples were collected from the catheter and delivered into acidified (0.1% HCl) centrifuge tubes. The rats were placed on thermostatic plates and kept under mild anesthesia throughout the experiment. The bile samples were diluted with saline and stored at −40°C until assayed.
as §1, §2

Data set [8] relates to CYP2C19. Set-up: method as in Li et al., 2017; Kuang et al., 2021. Conditions: human liver microsomes; ref Li et al., 2017; Kuang et al., 2021; cited from earlier work.
In data set [9] the test system is CYP2B6. Set-up: method as in Li et al., 2017; Kuang et al., 2021. Conditions: human liver microsomes; ref Li et al., 2017; Kuang et al., 2021; cited from earlier work.
Data set [10] is described as follows: Tissue distribution of GCM after intraperitoneal administration. Particulars: intraperitoneal 20 mg/kg, rats. The format is in vivo. As for the experimental part:
Twenty-five rats were randomly divided into five groups and administered 20 mg/kg GCM intraperitoneally. Samples of various tissues (heart, liver, spleen, lung, kidney, and brain) of a certain weight were collected from the rats at 0.5, 1, 2, 4, and 6 h following GCM administration. All tissues were then rinsed with normal saline to clean the blood, blotted with filter paper, and stored at −40°C until use. Blood samples were collected via the carotid artery at the specified time points, and plasma samples were harvested as described above.
Tissue samples were accurately weighed and homogenized in ice-cold saline (1:4, w/v) using a glass tissue homogenizer. Homogenized organs were centrifuged at 12,000 × g for 10 min to obtain clear supernatants; the supernatant was then transferred to a clean test tube kept at −40°C until assayed.
as §2

A short description of data set [11]: In vitro stability of GCM in pH buffers and gastrointestinal content solutions. Format: in vitro ADME, rats. Particulars: 4 h at 37°C, 0.8 μg/mL. How it is done:
The gastrointestinal tract solutions were collected as described previously ([Kong et al., 2013]). Briefly, rats were fasted overnight and sacrificed; the entire stomach, small intestine, and colon of each rat were removed, and their contents were rapidly collected on ice. Each of the contents was suspended in buffer solutions at pH 1.2, 6.8, and 7.4. Following mixing and centrifugation, the protein content of the gastrointestinal tract solutions was assayed using the BCA protein assay kit from Solarbio (Beijing, China) and then adjusted to 12 mg/mL for further study.
The stability of GCM in the gastrointestinal tract, including chemical stability and enzymatic stability, was assessed using an in vitro method as described previously ([Kong et al., 2013]). Briefly, GCM was spiked into different pH (1.2, 6.8, and 7.4) buffers and gastrointestinal content solutions containing the GCM at a final concentration of 0.8 μg/mL. The solutions were then mixed and incubated at 37°C. Aliquots of 200 μL samples were collected at 0.5, 1, 2, and 4 h, and 200 μL ice-cold methanol containing 200 ng/mL IS was added to stop the incubation. After centrifugation, 10 μL of the supernatant was used for analysis. Each experiment was performed in triplicate.

On the set-up of data set [12]: method as in Li et al., 2017; Kuang et al., 2021. Conditions: human liver microsomes; ref Li et al., 2017; Kuang et al., 2021; cited from earlier work.
On the set-up of data set [13]: method as in Wang et al., 2015. Particulars: ref Wang et al., 2015; cited from earlier work.
Data set [14] concerns CYP1A1. On the set-up: method as in Kim et al., 2016. Conditions: human liver microsomes; ref Kim et al., 2016; cited from earlier work.
The mark [15] stands for this setting: male, Sprague-Dawley, iv, free GCM, i.v. 10 mg/kg, rat plasma.

Regarding `COc1c(CC=C(C)C)c(O)cc2oc(=O)c(-c3ccc(O)cc3O)cc12` [GCM, Glycycoumarin], in data set [1] (free GCM, i.v. 10 mg/kg), the “Parent GCM in plasma collected after 6 h” value is “almost undetectable”. The molecule further came in with a CL/F in [1] (free GCM, i.v. 10 mg/kg, rats) of 149 ± 33.3 mL/min/kg. Also, the “Vd, λz/F” value in data set [1] (free GCM, i.v. 10 mg/kg, rats, in L/kg) was determined as 9.25 ± 3.13. In addition, the “Free GCM in plasma after 2 h” value in data set [1] (free GCM, oral 20 mg/kg) is listed as “almost undetectable”. Besides, the “AUC0-∞ of conjugated (glucuronidated) GCM relative to free GCM” value in data set [1] (i.v. 10 mg/kg, rat plasma) is “approximately four-times higher”. Also, in data set [1] (setting [15]), the AUC(0-inf) came to 1170 ± 283 ng·h/mL, the AUC(0-t) is 1160 ± 284 ng·h/mL and the C0 came to 5690 ± 1360 ng/mL. In addition, in [1] (male, Sprague-Dawley, iv, free GCM, i.v. 10 mg/kg, rat plasma, read-out: t1/2, λz (converted)), the half-life was 42.6 ± 6.6 min. For the same molecule, in [2], the CYP2D6 activity inhibition entry is “significantly inhibits”. Further, the CYP2C8 inhibition entry in data set [3] is given as “strongly inhibit”. For the same molecule, in data set [4] (ref Li et al., 2017, Kuang et al., 2021), the CYP2C9 inhibition result was “strongly inhibit”. Besides, the CYP1A2 inhibition entry in [5] was “strongly inhibit”. In data set [6] (0–12 h, read-out: Urine recovery), the dose excreted came out at 0.28 ± 0.25%. Moreover, in [6] (0–24 h, read-out: Urinary recovery over 24 h), the dose excreted was 0.39%. Moreover, the dose excreted in data set [6] (12–24 h, read-out: Urine recovery) was 0.11 ± 0.1%. For the same molecule, the dose excreted in data set [7] (0–2 h) is 0.2 ± 0.12%. The dose excreted in data set [7] (2–4 h) came to 0.08 ± 0.06%. The dose excreted in [7] (4–6 h) worked out at 0.05 ± 0.04%. Further, the “Parent form excreted from bile over 0–8 h” value in data set [7] (0–8 h) is < 1 % of the delivered dose. Moreover, the CYP2C19 inhibition result in [8] was “strongly inhibit”. Besides, the CYP2B6 inhibition result in data set [9] is recorded as “strongly inhibit”. In data set [10], the Blood-brain barrier crossing result is “cannot cross the blood-brain barrier”; the “GCM in brain samples” value is given as “not detected”; the “Tissue concentration rank order” value was “liver, followed by that in the spleen, lung, heart, and kidney”. Moreover, the “GCM levels in most tissues by 6 h after dosing” value in data set [10] (6 h) is “undetectable levels”. Also, in data set [11], the “Stability in colon content solutions” value is recorded as “unstable”, the “Stability in small intestine content solutions” value is reported as “unstable” and the “Stability in stomach content solutions” value is on record as “relatively stable”. The “Stability in pH buffer solutions” value in [11] (pH 1.2, 6.8 and 7.4) is “relatively stable”. Moreover, the UGT1A19 inhibition result in data set [12] is recorded as “strongly inhibit”.
Take `COc1c(CC=C(C)C)c(O)cc2oc(=O)c3c4ccc(O)cc4oc3c12` [Glycyrol]: in data set [4] (ref Kim et al., 2016), the CYP2C9 inhibition entry is recorded as “competitive inhibitory effects”. For the same molecule, the “Absorption into the blood after oral administration” value in [13] is recorded as “not absorbed into the blood”. Also, in data set [14], the CYP1A1 inhibition entry is “competitive inhibitory effects”.
